{"source": "patent US10913740B2", "about": "“JAK kinase inhibitor compounds for treatment of respiratory disease” (THERAVANCE BIOPHARMA R&D IP, LLC, priority 2015, dated 2021)", "key": {"[1]": {"assay": "Dynamic moisture sorption assessment", "type": "physicochemical", "settings": "humidity range of 5% to 90% relative humidity, room temperature (25° C.)", "method": "Dynamic moisture sorption (DMS) measurement was performed using a VTI atmospheric microbalance, SGA-100 system (VTI Corp., Hialeah, Fla. 33016). A weighed sample was used and the humidity was lowest possible value (close to 0% RH) at the start of the analysis. The DMS analysis consisted of an initial drying step (˜0% RH) for 120 minutes, followed by two cycles of sorption and desorption with a scan rate of 5% RH/step over the humidity range of 5% RH to 90% RH. The DMS run was performed isothermally at 25° C."}, "[2]": {"assay": "Pharmacokinetics in plasma and lung in mouse", "type": "in vivo", "settings": "ratio of lung AUC (μg hr/g) to plasma AUC (μg hr/mL), oral aspiration, 0.2 mg/mL, 50 uL", "method": "Plasma and lung levels of test compounds and ratios thereof were determined in the following manner. BALB/c mice from Charles River Laboratories were used in the assay. Test compounds were individually formulated in 20% propylene glycol in pH 4 citrate buffer at a concentration of 0.2 mg/mL and 50 uL of the dosing solution was introduced into the trachea of a mouse by oral aspiration. At various time points (typically 0.167, 2, 6, 24 hr) post dosing, blood samples were removed via cardiac puncture and intact lungs were excised from the mice. Blood samples were centrifuged (Eppendorf centrifuge, 5804R) for 4 minutes at approximately 12,000 rpm at 4° C. to collect plasma. Lungs were padded dry, weighed, and homogenized at a dilution of 1:3 in sterile water. Plasma and lung levels of test compound were determined by LC-MS analysis against analytical standards constructed into a standard curve in the test matrix. A lung to plasma ratio was determined as the ratio of the lung AUC in μg hr/g to the plasma AUC in μg hr/mL, where AUC is conventionally defined as the area under the curve of test compound concentration vs. time."}, "JAK1": {"target": "JAK1 (Homo sapiens (Human), UniProt P23458)", "sequence (P23458 whole entry)": "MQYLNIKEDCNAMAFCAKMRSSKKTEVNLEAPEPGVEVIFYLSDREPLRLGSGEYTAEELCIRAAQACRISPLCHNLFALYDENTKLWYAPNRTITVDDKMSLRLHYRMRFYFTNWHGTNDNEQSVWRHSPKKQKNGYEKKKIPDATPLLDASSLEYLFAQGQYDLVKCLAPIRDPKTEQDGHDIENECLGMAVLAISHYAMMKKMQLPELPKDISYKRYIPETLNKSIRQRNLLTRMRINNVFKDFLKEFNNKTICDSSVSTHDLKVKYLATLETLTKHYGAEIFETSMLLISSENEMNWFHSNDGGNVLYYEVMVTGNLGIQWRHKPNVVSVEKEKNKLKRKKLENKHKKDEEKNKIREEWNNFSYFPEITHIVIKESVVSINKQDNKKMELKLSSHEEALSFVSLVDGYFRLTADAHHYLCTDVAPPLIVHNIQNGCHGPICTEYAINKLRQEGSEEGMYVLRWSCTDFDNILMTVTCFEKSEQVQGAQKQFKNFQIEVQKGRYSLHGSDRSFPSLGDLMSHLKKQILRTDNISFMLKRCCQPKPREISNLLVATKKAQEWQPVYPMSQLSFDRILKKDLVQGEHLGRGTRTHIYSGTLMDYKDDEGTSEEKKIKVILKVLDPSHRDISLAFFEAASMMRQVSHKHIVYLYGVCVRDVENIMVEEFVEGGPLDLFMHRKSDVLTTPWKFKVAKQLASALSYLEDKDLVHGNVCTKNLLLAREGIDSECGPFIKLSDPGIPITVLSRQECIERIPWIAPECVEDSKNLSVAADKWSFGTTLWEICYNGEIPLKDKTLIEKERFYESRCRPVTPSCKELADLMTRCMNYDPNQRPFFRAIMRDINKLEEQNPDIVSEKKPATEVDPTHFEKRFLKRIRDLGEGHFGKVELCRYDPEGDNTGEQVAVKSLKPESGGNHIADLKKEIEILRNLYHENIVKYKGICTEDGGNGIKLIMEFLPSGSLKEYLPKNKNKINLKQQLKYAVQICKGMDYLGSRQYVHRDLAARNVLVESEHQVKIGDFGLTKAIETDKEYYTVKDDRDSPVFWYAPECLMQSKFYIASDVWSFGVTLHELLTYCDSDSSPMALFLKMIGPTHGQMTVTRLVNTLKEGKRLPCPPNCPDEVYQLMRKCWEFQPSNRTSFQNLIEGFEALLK", "assay": "LanthaScreen JAK biochemical assay (JAK1)", "settings": "vs Examples 1, 7, 13, 6 respectively"}, "[3]": {"tested_on": "interleukin-13 induced STAT6 phosphorylation in BEAS-2B human lung epithelial cells", "assay": "AlphaScreen JAKI cellular potency assay (BEAS-2B)", "type": "cell-based", "settings": "vs Examples 1, 7, 13, 6 respectively", "description": "The AlphaScreen JAKI cellular potency assay was carried out by measuring interleukin-13 (IL-13, R&D Systems) induced STAT6 phosphorylation in BEAS-2B human lung epithelial cells (ATCC). The anti-STAT6 antibody (Cell Signaling Technologies) was conjugated to AlphaScreen acceptor beads (Perkin Elmer), while the anti-pSTAT6 (pTyr641) antibody (Cell Signaling Technologies) was biotinylated using EZ-Link Sulfo-NHS-Biotin (Thermo Scientific).\nBEAS-2B cells were grown at 37° C. in a 5% CO2 humidified incubator in 50% DMEM/50% F-12 medium (Life Technologies) supplemented with 10% FBS (Hyclone), 100 U/mL penicillin, 100 μg/mL streptomycin (Life Technologies), and 2 mM GlutaMAX (Life Technologies). On day 1 of the assay, cells were seeded at a 7,500 cells/well density in white poly-D-lysine-coated 384-well plates (Corning) with 25 μL medium, and were allowed to adhere overnight in the incubator. On day 2 of the assay, the medium was removed and replaced with 12 μL of assay buffer (Hank's Balanced Salt Solution/HBSS, 25 mM HEPES, and 1 mg/ml bovine serum albumin/BSA) containing dose-responses of test compounds. Compounds were serially diluted in DMSO and then diluted another 1000-fold in media to bring the final DMSO concentration to 0.1%. Cells were incubated with test compounds at 37° C. for 1 h, and followed by the addition of 12 μl of pre-warmed IL-13 (80 ng/ml in assay buffer) for stimulation. After incubating at 37° C. for 30 min, the assay buffer (containing compound and IL-13) was removed, and 10 μl of cell lysis buffer (25 mM HEPES, 0.1% SDS, 1% NP-40, 5 mM MgCl2, 1.3 mM EDTA, 1 mM EGTA, and supplement with Complete Ultra mini protease inhibitors and PhosSTOP from Roche Diagnostics). The plates were shaken at ambient temperature for 30 min before the addition of detection reagents. […] After a minimum of 2 h incubation, the assay plates were read on the EnVision plate reader.\nResults were expressed as the negative logarithm of the IC50 value, pIC50."}, "[4]": {"settings": "mouse, in vivo", "method": "(§1) Adult balb/c mice from Harlan were used in the assay. On the day of study, animals were lightly anesthetized with isoflurane and administered either vehicle or test compound (0.5 mg/mL, 50 μL total volume over several breaths) via oral aspiration. Animals were placed in lateral recumbency post dose and monitored for full recovery from anesthesia before being returned to their home cage. Four hours later, animals were once again briefly anesthetized and challenged with either vehicle or IL-13 (0.03 μg total dose delivered, 50 μL total volume) via oral aspiration before being monitored for recovery from anesthesia and returned to their home cage. One hour after vehicle or IL-13 administration, lungs were collected for both pSTAT6 detection using an anti-pSTAT6 ELISA (rabbit mAb capture/coating antibody; mouse mAb detection/report antibody: anti-pSTAT6-pY641; secondary antibody: anti-mouse IgG-HRP) and analyzed for total drug concentration as described above in Assay 4.\nSelected compounds of the invention were characterized in both the pharmacokinetic assay (Assay 4) and pharmacodynamic assay (Assay 5). A good correlation was observed between test compound concentration in lung determined in the pharmacokinetic assay and in the pharmacodynamic assay at a similar time points post dosing. Observation of significant compound concentration in the mouse lung in the pharmacodynamic assay confirmed that the observed inhibition of IL-13 induced pSTAT6 induction was a result of the activity of the test compound."}, "[5]": {"tested_on": "IL-13 induced pSTAT6 in lung tissue", "assay": "Murine model of IL-13 induced pSTAT6 induction in lung tissue", "type": "in vivo", "settings": "mouse lung, Assay 5 conditions", "method": "Il-13 is an important cytokine underlying the pathophysiology of asthma (Kudlacz et al. Eur. J. Pharmacol, 2008, 582, 154-161). IL-13 binds to cell surface receptors activating members of the Janus family of kinases (JAK) which then phosphorylate STAT6 and subsequently activates further transcription pathways. In the described model, a dose of IL-13 was delivered locally into the lungs of mice to induce the phosphorylation of STAT6 (pSTAT6) which is then measured as the endpoint.\nas §1, with “On the day of study, animals were lightly anesthetized with isoflurane and administered either vehicle or test compound (0.5 mg/mL, 50 μL total volume over several breaths) via oral aspiration.” left out, “4. […]” for “4.”"}}, "note": "Where two headings read alike, the source gives them in different places."}
{"smiles": "CCc1cc(O)c(F)cc1-c1ccc2c(-c3nc4c([nH]3)CCN(C3CCN(C)CC3)C4)n[nH]c2c1", "note": "[crystalline hydrate, 5-ethyl-2-fluoro-4-(3-(5-(1-methylpiperidin-4-yl)-4,5,6,7-tetrahydro-1H-imidazo[4,5-c]pyridin-2-yl)-1H-indazol-6-yl)phenol]", "values": [{"measurement": "weight gain (dynamic moisture sorption)", "setting": "[1]", "result": "less than 0.12%"}]}
{"smiles": "CCc1cc(O)c(F)cc1-c1ccc2c(-c3nc4c([nH]3)CCN(C[C@H]3COCCN3)C4)n[nH]c2c1", "note": "[Example 13, (S)-5-Ethyl-2-fluoro-4-(3-(5-(morpholin-3-ylmethyl)-4,5,6,7-tetrahydro-1H-imidazo[4,5-c]pyridin-2-yl)-1H-indazol-6-yl)phenol]", "values": [{"measurement": "Lung to Plasma ratio Assay 4", "setting": "[2]", "result": "A (A denotes a ratio >100)"}]}
{"smiles": "CCc1cc(O)c(F)cc1-c1ccc2c(-c3nc4c([nH]3)CCN(CC3CNC3)C4)n[nH]c2c1", "note": "[Example 14-7]", "values": [{"measurement": "Lung to Plasma ratio Assay 4", "setting": "[2]", "result": "A (A denotes a ratio >100)"}]}
{"smiles": "CCc1cc(O)c(F)cc1-c1ccc2c(-c3nc4c([nH]3)CCN(CCC(C)C)C4)n[nH]c2c1", "note": "[Example C-2]", "values": [{"measurement": "fold less potent than the corresponding compound of the invention in the enzyme assay", "setting": "JAK1", "result": 3, "unit": "fold"}, {"measurement": "fold less potent than the corresponding compound of the invention in the BEAS-2B cellular assay", "setting": "[3]", "result": 6, "unit": "fold"}, {"measurement": "factor by which lung concentration was smaller than for the corresponding compound of the invention", "setting": "[4]", "result": 52}]}
{"smiles": "CCc1cc(O)c(F)cc1-c1ccc2c(-c3nc4c([nH]3)CCN(C3CN(C5CCS(=O)(=O)C5)C3)C4)n[nH]c2c1", "note": "(stereo not drawn) [Example 1-15]", "values": [{"measurement": "pSTAT6 inhibition in the pharmacodynamic assay", "setting": "[5]", "result": "noted as exceptions"}]}
{"smiles": "CCc1cc(O)c(F)cc1-c1ccc2c(-c3nc4c([nH]3)CCN(C3CC(C)C3)C4)n[nH]c2c1", "note": "(stereo not drawn) [Example C-1, 5-Ethyl-2-fluoro-4-(3-(5-(3-methylcyclobutyl)-4,5,6,7-tetrahydro-1H-imidazo[4,5-c]pyridin-2-yl)-1H-indazol-6-yl)phenol]", "values": [{"measurement": "fold less potent than the corresponding compound of the invention in the enzyme assay", "setting": "JAK1", "result": 2, "unit": "fold"}, {"measurement": "factor by which lung concentration was smaller than for the corresponding compound of the invention", "setting": "[4]; balb/c, 5 h", "result": 36}]}
{"smiles": "CCc1cc(O)c(F)cc1-c1ccc2c(-c3nc4c([nH]3)CCN(CCN(C)CC(C)C)C4)n[nH]c2c1", "note": "[Example 3-33]", "values": [{"measurement": "Lung to Plasma ratio Assay 4", "setting": "[2]", "result": "A (A denotes a ratio >100)"}]}
{"smiles": "CCc1cc(O)c(F)cc1-c1ccc2c(-c3nc4c([nH]3)CCN(CC3CCCOC3)C4)n[nH]c2c1", "note": "(stereo not drawn) [Example C-3]", "values": [{"measurement": "fold less potent than the corresponding compound of the invention in the enzyme assay", "setting": "JAK1", "result": 6, "unit": "fold"}, {"measurement": "fold less potent than the corresponding compound of the invention in the BEAS-2B cellular assay", "setting": "[3]", "result": 3, "unit": "fold"}, {"measurement": "factor by which lung concentration was smaller than for the corresponding compound of the invention", "setting": "[4]", "result": 13}]}
{"smiles": "CCc1cc(O)c(F)cc1-c1ccc2c(-c3nc4c([nH]3)CCN(C3CCC(C)CC3)C4)n[nH]c2c1", "note": "(stereo not drawn) [Example C-4]", "values": [{"measurement": "fold less potent than the corresponding compound of the invention in the enzyme assay", "setting": "JAK1", "result": 2.5, "unit": "fold"}, {"measurement": "fold less potent than the corresponding compound of the invention in the BEAS-2B cellular assay", "setting": "[3]", "result": 6, "unit": "fold"}, {"measurement": "factor by which lung concentration was smaller than for the corresponding compound of the invention", "setting": "[4]", "result": 23}]}
{"smiles": "CCc1cc(O)c(F)cc1-c1ccc2c(-c3nc4c([nH]3)CCN(CCNC3CC(OC)C3)C4)n[nH]c2c1", "note": "(stereo not drawn) [Example 8, 5-Ethyl-2-fluoro-4-(3-(5-(2-((3-methoxycyclobutyl)amino)ethyl)-4,5,6,7-tetrahydro-1H-imidazo[4,5-c]pyridin-2-yl)-1H-indazol-6-yl)phenol]", "values": [{"measurement": "Lung to Plasma ratio Assay 4", "setting": "[2]", "result": "A (A denotes a ratio >100)"}]}
{"smiles": "CCc1cc(O)c(F)cc1-c1ccc2c(-c3nc4c([nH]3)CCN(C[C@@H]3CCCN3C)C4)n[nH]c2c1", "note": "[Example 11, (S)-5-ethyl-2-fluoro-4-(3-(5-((1-methylpyrrolidin-2-yl)methyl)-4,5,6,7-tetrahydro-1H-imidazo[4,5-c]pyridin-2-yl)-1H-indazol-6-yl)phenol]", "values": [{"measurement": "Lung to Plasma ratio Assay 4", "setting": "[2]", "result": "A (A denotes a ratio >100)"}]}
{"smiles": "CCc1cc(O)c(F)cc1-c1ccc2c(-c3nc4c([nH]3)CCN(C[C@@H]3COCCN3)C4)n[nH]c2c1", "note": "[Example 14, (R)-5-Ethyl-2-fluoro-4-(3-(5-(morpholin-3-ylmethyl)-4,5,6,7-tetrahydro-1H-imidazo[4,5-c]pyridin-2-yl)-1H-indazol-6-yl)phenol]", "values": [{"measurement": "Lung to Plasma ratio Assay 4", "setting": "[2]", "result": "A (A denotes a ratio >100)"}]}
{"smiles": "CCc1cc(O)c(F)cc1-c1ccc2c(-c3nc4c([nH]3)CCN(CCNC3(C#N)CC3)C4)n[nH]c2c1", "note": "[Example 3-1]", "values": [{"measurement": "pSTAT6 inhibition in the pharmacodynamic assay", "setting": "[5]", "result": "noted as exceptions"}]}
{"smiles": "CCc1cc(O)c(F)cc1-c1ccc2c(-c3nc4c([nH]3)CCN(CCN3CCC[C@@H]3C)C4)n[nH]c2c1", "note": "[Example 15, (S)-5-ethyl-2-fluoro-4-(3-(5-(2-(2-methylpyrrolidin-1-yl)ethyl)-4,5,6,7-tetrahydro-1H-imidazo[4,5-c]pyridin-2-yl)-1H-indazol-6-yl)phenol]", "values": [{"measurement": "Lung to Plasma ratio Assay 4", "setting": "[2]", "result": "A (A denotes a ratio >100)"}]}
